Columns and labels:
Experiment in all cases: Antibiotic susceptibility, disk method on L-agar; on Antibiotic resistance of strain ATCC 13880: key: R—Resistant; I—Intermediate; S—Susceptible; on Antibiotic resistance of strain BF1: key: R—Resistant; I—Intermediate; S—Susceptible; on Antibiotic resistance of strain NRRL B-50575: key: R—Resistant; I—Intermediate; S—Susceptible; on Antibiotic resistance of strain TBSB-08: key: R—Resistant; I—Intermediate; S—Susceptible; on Antibiotic resistance of strain TBSB-09: key: R—Resistant; I—Intermediate; S—Susceptible
[1] = test system: ATCC 13880; assay type: cell-based, Serratia marcescens; conditions: 25° C. Further: key: R—Resistant; I—Intermediate; S—Susceptible.
Procedure: (§1) Antibiotic Susceptibility: Two agar plates were streaked for growth with NRRL B-50575, and 8 paper discs, each soaked in a different antibiotic, were placed on the agar, with 4 discs on each plate. Disks containing the following antibiotics were used/obtained from Remel (Lenexa Kans.): ampicillin (10 μg), chloramphenicol (30 μg), erythromycin (30 μg), kanamycin (30 μg), neomycin (30 μg), tetracycline (30 μg), triple sulfa (300 μg) and vancomycin (30 μg). The plates were incubated for 24 hours at 25° C., and after this incubation period the zone of inhibition around each disc was measured.
(§2) The diffusible pink pigment (FIG. 4) produced by NRRL B-50575 (TP 07) was different from the red pigment of BF1 and ATCC 13880 (ATCC-SM), and the pigment was made at temperatures below 25° C. Antibiotic susceptibility was determined using the disk method per manufacturer's instructions on L-agar, incubated at 25° C. (Table 6). All of the pink bacterial strains had the similar antibiotic resistance. They differed in sensitivity to tetracycline, kanamycin, and chloramphenicol. They also differed from BF1 and ATCC 13880 in sensitivity to erythromycin.

[2] = test system: Serratia marcesans BF1; assay type: cell-based, Serratia marcescens; conditions: 25° C. Further: key: R—Resistant; I—Intermediate; S—Susceptible.
Procedure: as §1, §2

[3] = test system: TBSB-08; assay type: cell-based; conditions: 25° C. Further: key: R—Resistant; I—Intermediate; S—Susceptible.
Procedure: as §1, §2

[4] = test system: TBSB-09; assay type: cell-based; conditions: 25° C. Further: key: R—Resistant; I—Intermediate; S—Susceptible.
Procedure: as §1, §2

[5] = test system: NRRL B-50575; assay type: cell-based, Serratia; conditions: for Antibiotic resistance of strain NRRL B-50575: disk method, L-agar, 25° C.; for resistance to antibiotics of NRRL B-50575 (in words): list of identifying characteristics; on Antibiotic resistance of strain NRRL B-50575: key: R—Resistant; I—Intermediate; S—Susceptible
Procedure: as §1, §2

| Compound | Antibiotic resistance of strain ATCC 13880 [1] | Antibiotic resistance of strain BF1 [2] | Antibiotic resistance of strain TBSB-08 [3] | Antibiotic resistance of strain TBSB-09 [4] | Antibiotic resistance of strain NRRL B-50575 [5] | resistance to antibiotics of NRRL B-50575 (in words) [5] |
| --- | --- | --- | --- | --- | --- | --- |
| CC1(C)S[C@@H]2[C@H](NC(=O)[C@H](N)c3ccccc3)C(=O)N2[C@H]1C(=O)O [Ampicillin, ampicillin] | R | R | R | R | R | resistant |
| O=C(N[C@H](CO)[C@H](O)c1ccc([N+](=O)[O-])cc1)C(Cl)Cl [Chloramphenicol, chloramphenicol] | I | S | I | S | I | intermediate |
| CC[C@H]1OC(=O)[C@H](C)[C@@H](O[C@H]2C[C@@](C)(OC)[C@@H](O)[C@H](C)O2)[C@H](C)[C@@H](O[C@@H]2O[C@H](C)C[C@H](N(C)C)[C@H]2O)[C@](C)(O)C[C@@H](C)C(=O)[C@H](C)[C@@H](O)[C@]1(C)O [Erythromycin, erythromycin] | I | I | R | R | R | resistant |
| NC[C@H]1O[C@H](O[C@H]2[C@H](O)[C@@H](O[C@H]3O[C@H](CO)[C@@H](O)[C@H](N)[C@H]3O)[C@H](N)C[C@@H]2N)[C@H](O)[C@@H](O)[C@@H]1O [Kanamycin, kanamycin] | S | S | I | S | S |  |
| CN(C)[C@@H]1C(O)=C(C(N)=O)C(=O)[C@@]2(O)C(O)=C3C(=O)c4c(O)cccc4[C@@](C)(O)[C@H]3C[C@@H]12 [Tetracycline, tetracycline] | R | R | I | R | I |  |
| CN[C@H](CC(C)C)C(=O)N[C@H]1C(=O)N[C@@H](CC(N)=O)C(=O)N[C@H]2C(=O)N[C@H]3C(=O)N[C@H](C(=O)N[C@H](C(=O)O)c4cc(O)cc(O)c4-c4cc3ccc4O)[C@H](O)c3ccc(c(Cl)c3)Oc3cc2cc(c3O[C@@H]2O[C@H](CO)[C@@H](O)[C@H](O)[C@H]2O[C@H]2C[C@](C)(N)[C@H](O)[C@H](C)O2)Oc2ccc(cc2Cl)[C@H]1O [Vancomycin, vancomycin] | R | R | R | R | R | resistant |
| neomycin | S | S | S | S | S | susceptible |
